Article PMC6125496 (Antimicrobial Agents and Chemotherapy, 2018)
In brackets after ≈: the same amount, converted by molar mass. Non-standard residues stand in square brackets, D forms with d. Residues, ends and D or L forms follow the SMILES beside them. Dab(3S-OH) = NC[C@H](O)[C@H](N)C(=O)O; Phe(2-F) = N[C@@H](Cc1ccccc1F)C(=O)O; ΔZArg = N=C(N)NCC/C=C(\N)C(=O)O; dOrn = NCCC[C@@H](N)C(=O)O; Dab = NCC[C@H](N)C(=O)O

Columns and labels:
in vitro [1] = settings: cryopreserved pooled hepatocytes
Description: The hepatocyte metabolic stability assays were performed by Cyprotex Discovery Ltd. (Macclesfield, UK). This assay utilizes cryopreserved pooled hepatocytes from different species (mouse, rat, dog, monkey, and human), stored in liquid nitrogen prior to use. […] The final incubation volume was 500 μl. Two control compounds were included with each species alongside an appropriate vehicle control. […] The termination plates were centrifuged at 2,500 rpm at 4°C for 30 min to precipitate the protein. Following protein precipitation, the test compound sample supernatants were diluted with analytical-grade water, whereas the control compounds were diluted with an internal standard (metoprolol) in water. The test compound samples were analyzed by liquid chromatography-tandem mass spectrometry (LC-MS/MS).

[2] = test system: Gentamicin-resistant E. coli (6); settings: 6 gentamicin-resistant isolates
From the text: (§1) Reference strains are from the German Collection of Microorganisms and Cell Cultures (DSMZ), the American Type Culture Collection (ATCC), the National Collection of Type Cultures (NCTC), and the Medical and Molecular Microbiology, Faculty of Science and Medicine, University of Fribourg, Switzerland.

CHO-K1 cells = settings: 512 μM, 24 h; S9 medium negative control 0.7%
Description: The test was conducted by Eurofins Panlabs. […] At the end of the incubation period the cells were fixed, and their DNA was stained with Hoechst. The visualization and scoring of the cells was done using an automated fluorescence microscope coupled with proprietary automated image analysis software ([46]). The percent micronucleated cells was calculated.

[3] = molecular target: Nav 1.5 human sodium ion channel (Homo sapiens, UniProt Q14524); experiment: cell-based
Nav 1.5 human sodium ion channel, sequence (Q14524 1-2015 isoform Q14524-2): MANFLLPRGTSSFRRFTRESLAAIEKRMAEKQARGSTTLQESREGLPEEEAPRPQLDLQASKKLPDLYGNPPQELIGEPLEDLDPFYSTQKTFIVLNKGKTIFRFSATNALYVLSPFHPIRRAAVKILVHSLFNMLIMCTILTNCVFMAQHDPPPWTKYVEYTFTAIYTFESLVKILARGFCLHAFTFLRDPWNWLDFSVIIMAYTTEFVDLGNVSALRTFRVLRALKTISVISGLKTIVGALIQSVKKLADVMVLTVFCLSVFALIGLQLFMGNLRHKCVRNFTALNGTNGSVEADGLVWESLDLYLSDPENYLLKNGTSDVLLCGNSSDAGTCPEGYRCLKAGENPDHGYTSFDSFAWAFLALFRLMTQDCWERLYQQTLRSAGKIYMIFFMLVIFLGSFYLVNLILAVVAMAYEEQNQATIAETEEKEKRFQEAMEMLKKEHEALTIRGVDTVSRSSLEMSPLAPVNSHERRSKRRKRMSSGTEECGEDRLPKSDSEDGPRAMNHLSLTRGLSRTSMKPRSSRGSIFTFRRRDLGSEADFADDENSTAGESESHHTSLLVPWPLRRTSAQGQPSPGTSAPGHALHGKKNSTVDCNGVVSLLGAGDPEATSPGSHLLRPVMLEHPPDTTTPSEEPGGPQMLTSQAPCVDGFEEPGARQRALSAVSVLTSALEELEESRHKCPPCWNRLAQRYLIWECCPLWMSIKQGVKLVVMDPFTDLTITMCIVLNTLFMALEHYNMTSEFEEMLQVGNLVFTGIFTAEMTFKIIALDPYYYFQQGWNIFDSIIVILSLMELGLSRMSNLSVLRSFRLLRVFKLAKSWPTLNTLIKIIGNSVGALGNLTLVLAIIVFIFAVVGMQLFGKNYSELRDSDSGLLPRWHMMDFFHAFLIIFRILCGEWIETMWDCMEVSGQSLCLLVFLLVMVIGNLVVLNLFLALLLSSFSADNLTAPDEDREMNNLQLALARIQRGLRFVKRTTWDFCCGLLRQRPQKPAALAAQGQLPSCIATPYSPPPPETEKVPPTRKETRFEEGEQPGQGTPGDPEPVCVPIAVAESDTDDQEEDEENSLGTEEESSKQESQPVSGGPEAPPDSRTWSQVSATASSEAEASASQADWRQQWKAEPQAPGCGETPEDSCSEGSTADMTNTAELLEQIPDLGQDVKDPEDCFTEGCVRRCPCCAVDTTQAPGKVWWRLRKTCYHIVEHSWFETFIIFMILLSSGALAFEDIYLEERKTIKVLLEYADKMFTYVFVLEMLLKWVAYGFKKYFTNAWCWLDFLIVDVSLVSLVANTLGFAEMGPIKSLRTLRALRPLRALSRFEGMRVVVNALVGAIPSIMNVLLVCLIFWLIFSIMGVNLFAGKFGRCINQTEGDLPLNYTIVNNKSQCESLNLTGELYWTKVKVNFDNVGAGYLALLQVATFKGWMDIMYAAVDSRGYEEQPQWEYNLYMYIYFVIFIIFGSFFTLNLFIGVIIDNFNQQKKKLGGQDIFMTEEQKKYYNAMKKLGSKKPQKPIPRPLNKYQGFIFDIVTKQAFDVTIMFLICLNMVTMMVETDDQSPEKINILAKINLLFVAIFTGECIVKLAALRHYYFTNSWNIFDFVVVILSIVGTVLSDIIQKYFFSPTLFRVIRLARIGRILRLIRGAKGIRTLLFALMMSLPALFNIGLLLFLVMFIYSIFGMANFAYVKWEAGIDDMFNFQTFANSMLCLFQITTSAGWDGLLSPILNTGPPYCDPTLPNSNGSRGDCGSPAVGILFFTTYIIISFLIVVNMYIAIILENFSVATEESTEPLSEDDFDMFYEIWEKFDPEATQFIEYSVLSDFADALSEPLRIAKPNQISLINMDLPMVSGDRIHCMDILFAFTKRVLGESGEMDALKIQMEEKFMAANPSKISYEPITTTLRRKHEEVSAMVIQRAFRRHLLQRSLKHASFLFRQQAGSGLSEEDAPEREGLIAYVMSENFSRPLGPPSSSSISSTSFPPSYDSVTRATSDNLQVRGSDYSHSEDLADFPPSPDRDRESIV
Description: Inhibition of the Nav 1.5 human sodium ion channel was determined by Eurofins Panlabs in HEK-293 cells stably transfected with human Nav1.5 cDNA (type V voltage-gated sodium channel alpha subunit, GenBank accession number NM_000335) using IonWorks Quattro automated whole-cell patch clamp electrophysiology. […] In this method, the voltage protocol is applied prior to compound addition (Pre), the compounds are added and incubated for 600 s at room temperature, and then the voltage protocol is applied a final time (Post) on the IonWorks Quattro.

[4] = test system: human renal proximal tubular epithelial cells (HRPTEpiC); experiment: Multiplexed HRPTEpiC cytotoxicity assay (cell viability, KIM-1, HSP27)
Description: The multiplexed cytotoxicity assay on human renal proximal tubule epithelial cells (HRPTEpiC) was conducted by Eurofins Panlabs (Eurofins Panlabs, Inc., St. Charles, MO) by using an image-based high content analysis (HCA) technique where cells were fixed and stained with nuclear dye to visualize nuclei and fluorescently labeled antibodies to detect drug-induced cellular injury and cellular stress arising from oxidative and chemical stress. Cells were seeded into 384-well plates and grown in RPMI 1640, 10% fetal bovine serum (FBS), 2 mM L-alanyl-L-glutamine, and 1 mM sodium pyruvate in a humidified atmosphere of 5% CO2 at 37°C. […] Compounds were serially diluted 3.16-fold and assayed over 10 concentrations in a final assay concentration of 0.5% dimethyl sulfoxide (DMSO) from 100 μM to 3.7 nM. At the same time, a time zero untreated cell plate was generated. After a 48-h incubation period, cells were fixed and stained with fluorescently labeled antibodies and nuclear dyed to allow visualization of nuclei, injured cells, and stressed cells. Injured cells were detected using a KIM-1 (kidney injury molecule 1) antibody. Stressed cells were detected using an anti-HSP27 (heat shock protein 27) antibody. Cell proliferation was measured by the signal intensity of the incorporated nuclear dye. The cell proliferation assay output was referred to as the relative cell count. To determine the cell proliferation endpoint, the cell proliferation data output was transformed to percentage of control (POC) using the following formula: POC = relative cell count in compound wells/relative cell count in vehicle wells × 100. The signal intensity of the incorporated cellular stress and injury measurements were normalized with the relative cell count from each well. Automated fluorescence microscopy was carried out using a Molecular Devices ImageXpress micro-imager, and images were collected with a 4× objective.

E. coli EN122 = settings: ESBL, clinical isolate
Description: (§2) MIC values were determined using Clinical and Laboratory Standards Institute (CLSI) broth microdilution methodology, colony direct suspension, as described in CLSI document M07-A10 ([42]).

in vitro [5] = settings: plasma (EDTA anticoagulant), pH 7.4
Description: The […] were performed by Cyprotex Discovery Ltd. (Macclesfield, UK). […] The experiment was performed using equilibrium dialysis (RED device) with the two compartments separated by a semipermeable membrane. Buffer (pH 7.4) was added to one side of the membrane and the plasma solution to the other. After equilibration (4 h), samples were taken from both sides of the membrane. Calibration standards were prepared in plasma and buffer. All incubations were performed in triplicate. A control compound was included in each experiment. Incubation of the control compound samples was terminated with acetonitrile containing an internal standard (metoprolol). Incubation of the test compound samples was terminated with 40% TCA in water containing in internal standard (NOSO-95216; 1 μM final concentration). All samples were centrifuged and further diluted with water prior to analysis. The solutions for each batch of control compounds were combined into two groups (protein free and protein containing) and cassette analyzed by LC-MS/MS using two sets of calibration standards for protein-free (seven points) and protein-containing solutions (seven points).

hERG = hERG (Homo sapiens, UniProt Q12809); experiment: in vitro
hERG, sequence (Q12809 whole entry): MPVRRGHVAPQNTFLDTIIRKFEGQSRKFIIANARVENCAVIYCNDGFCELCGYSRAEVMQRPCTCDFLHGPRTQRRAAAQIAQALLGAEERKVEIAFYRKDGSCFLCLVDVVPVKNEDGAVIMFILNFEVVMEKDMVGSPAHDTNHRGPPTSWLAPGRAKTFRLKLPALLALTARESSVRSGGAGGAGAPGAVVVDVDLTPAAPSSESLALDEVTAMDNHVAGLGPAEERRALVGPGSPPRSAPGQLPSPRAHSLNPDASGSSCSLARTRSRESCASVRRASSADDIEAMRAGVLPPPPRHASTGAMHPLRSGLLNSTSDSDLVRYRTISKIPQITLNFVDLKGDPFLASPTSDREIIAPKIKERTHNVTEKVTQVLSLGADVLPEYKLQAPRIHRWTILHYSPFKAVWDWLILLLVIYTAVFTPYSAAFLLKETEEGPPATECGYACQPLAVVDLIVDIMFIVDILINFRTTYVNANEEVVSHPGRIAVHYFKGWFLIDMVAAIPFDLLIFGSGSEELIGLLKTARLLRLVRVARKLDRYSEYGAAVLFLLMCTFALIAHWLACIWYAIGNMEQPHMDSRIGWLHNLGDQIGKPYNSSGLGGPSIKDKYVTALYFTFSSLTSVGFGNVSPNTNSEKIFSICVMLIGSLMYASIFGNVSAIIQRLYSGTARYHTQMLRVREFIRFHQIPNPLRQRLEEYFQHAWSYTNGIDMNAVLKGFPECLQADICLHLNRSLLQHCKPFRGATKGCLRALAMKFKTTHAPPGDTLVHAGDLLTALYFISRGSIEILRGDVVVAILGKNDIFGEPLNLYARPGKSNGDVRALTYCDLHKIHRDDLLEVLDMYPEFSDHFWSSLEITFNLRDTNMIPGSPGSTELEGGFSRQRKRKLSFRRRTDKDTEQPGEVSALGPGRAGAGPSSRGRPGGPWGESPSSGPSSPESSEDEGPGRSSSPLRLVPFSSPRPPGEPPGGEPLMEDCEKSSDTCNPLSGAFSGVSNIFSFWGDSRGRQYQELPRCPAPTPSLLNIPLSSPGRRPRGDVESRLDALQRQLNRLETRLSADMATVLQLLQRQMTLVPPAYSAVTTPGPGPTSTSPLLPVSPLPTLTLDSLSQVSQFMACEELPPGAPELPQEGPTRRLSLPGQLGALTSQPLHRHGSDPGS
Description: Inhibition of the human ether-a-go-go-related gene (hERG) cardiac potassium ion channel was determined by Eurofins Panlabs (Eurofins Panlabs, Inc., St. Charles, MO) in CHO-K1 (Chinese hamster ovary) cells stably transfected with human hERG cDNA using QPatch automated whole-cell patch clamp electrophysiology as described in reference [45]. […] In this method, the extracellular solution (control) is applied first and the cell is stabilized in the solution for 5 min. Then the test compound is applied from low to high concentrations sequentially on the same cell, with 5 min for each test concentration, at room temperature.

in vitro [6] = settings: human, cryopreserved pooled hepatocytes
in vitro [7] = settings: plasma, pH 7.4
Description: The final incubation volume was 200 μl. All incubations were performed singularly for each compound at each time point. A vehicle control incubation was included using either water or DMSO, along with a control compound known to be metabolized specifically by each species. Each compound was incubated for 0, 15, 30, 60, and 120 min at 37°C. The reactions were stopped by the addition of 40% TCA in water containing an internal standard (NOSO-95216, 1 μM final concentration) for the test compounds, or methanol for the control compounds, at the appropriate time points. The vehicle control incubation was incubated for 120 min only. The termination plates were centrifuged at 3,000 rpm for 45 min at 4°C to precipitate the protein. Following protein precipitation, the test compound sample supernatants were diluted with analytical-grade water, whereas the control compounds were diluted with an internal standard (metoprolol) in water. The test compound samples were analyzed by LC-MS/MS.

Enterobacter cloacae BEU = settings: Ambler class D carbapenemase; OXA-48 + CTX-M15 + SHV-12 + TEM-1 + OXA-1 + DHA-1
From the text: as §1

Escherichia coli MON = settings: Ambler class B carbapenemase; NDM-5 + CTX-M15 + TEM-1
From the text: as §1

Enterobacter cloacae YAM = settings: Ambler class D carbapenemase; OXA-48 + CTX-M15 + TEM-1 + OXA-1 + DHA-1
From the text: as §1

Description for E. coli UTI89: as §2

N=C(N)NCC/C=C(\NC(=O)[C@H](CCCCN)NC(=O)[C@H](Cc1ccccc1F)NC(=O)[C@@H]1CCCN1C(=O)[C@@H](CCCN)NC(=O)CNC(=O)[C@H](CCN)NC(=O)[C@@H](NC(=O)[C@@H](N)CCCCN)[C@@H](O)CN)C(=O)O [NOSO-502] (H-K[Dab(3S-OH)][Dab]G[dOrn]P[Phe(2-F)]K[ΔZArg]-OH)
half-life at 1 μM (in vitro [1]; dog): 8.05 h
half-life at 1 μM (in vitro [1]; monkey): 11.6 h
half-life at 1 μM (in vitro [1]; mouse): 3.2 h
half-life at 1 μM (in vitro [1]; rat): 3.23 h
MIC (E. coli UTI89): 4 µg/mL (≈ 3.71 µM)
MIC range [2]: 4 µg/mL (≈ 3.71 µM)
cells with micronuclei (CHO-K1 cells): 0.61%
IC50 [3]: > 512 µM
concentration inducing a significant (5-fold) increase of KIM-1 level ([4]; tested up to 100 μM): > 100 µM
MIC (E. coli EN122): 4 µg/mL (≈ 3.71 µM)
fraction unbound at 4 h, 2 μM (in vitro [5]; dog): 0.176
fraction unbound at 4 h, 2 μM (in vitro [5]; human): 0.187
fraction unbound at 4 h, 2 μM (in vitro [5]; mouse): 0.198
fraction unbound at 4 h, 2 μM (in vitro [5]; rat): 0.205
inhibition at 5 min, 256 µM (hERG): 2.6%
inhibition at 5 min, 512 µM (hERG): 1.9%
half-life at 1 μM (in vitro [6]): 5.48 h
half-life at 10 μM (in vitro [7]; dog): 2.63 h
half-life at 10 μM (in vitro [7]; human): 1.32 h
half-life at 10 μM (in vitro [7]; monkey): 1.6 h
half-life at 10 μM (in vitro [7]; mouse): 0.9 h
half-life at 10 μM (in vitro [7]; rat): 0.6 h

polymyxin B [PMB]
MIC (Enterobacter cloacae BEU): 16 µg/mL
MIC (Escherichia coli MON): 0.5 µg/mL
MIC (Enterobacter cloacae YAM): 1 µg/mL
IC50 ([4]; read-out: cytotoxicity IC50 (cell viability), 48-h incubation): 11.8 µM
concentration inducing a significant (5-fold) increase of HSP27 level ([4]; tested up to 100 μM): 9.7 µM
concentration inducing a significant (5-fold) increase of KIM-1 level ([4]; tested up to 100 μM): 12.1 µM
